Measurements taken from ChEMBL document CHEMBL4483862, “Open-source discovery of chemical leads for next-generation chemoprotective antimalarials” (2018).

System: Plasmodium berghei
Experiment: Luciferase/luciferin-expressing antifolate-resistant parasites were used to infect a culture of HepG2 cells that were pre-incubated with compounds. Infected hepatocytes emit light due to the luciferase reaction. Assay results are presented as the percent inhibition of light emission compared to control. […]
Format: functional
Conditions: sporozoite; for IC90: read-out: LUCIFERASE INFECTION ASSAY - IC90
[1] = read-out: LUCIFERASE INFECTION ASSAY - IC50

## Cc1ccn2cc(C(=O)N3CCN(Cc4ccc(C(F)(F)F)cc4)CC3)nc2c1
HEPG2TOX_HILL_SLOPE 2.22, HEPG2TOX_R_SQUARED 0.687, PBLUC_HILL_SLOPE 18.4, PBLUC_R_SQUARED 0.747, read-out: LUCIFERASE INFECTION ASSAY - IC50
  IC50: 3.35 µM
  IC90: 3.77 µM

## O=C(Nc1ccccc1)c1ccccc1OCC(O)COCc1ccc(Cl)cc1 (stereo not drawn)
[1]
  IC50: > 10 µM
  IC90: > 10 µM

## CC(=O)Nc1cccc(-c2cn3c(-c4ccc(CO)cc4)cnc3cn2)c1
PBLUC_HILL_SLOPE 4.55, PBLUC_R_SQUARED 0.47, read-out: LUCIFERASE INFECTION ASSAY - IC50
  IC50: 6.15 µM
  IC90: > 9.21 µM

## CN(C)c1ccccc1-c1cn2c(-c3ccc4c(ccn4C)c3)cnc2cn1
FFLUC_HILL_SLOPE 0.352, FFLUC_R_SQUARED 0.0452, HEPG2TOX_HILL_SLOPE 0.416, HEPG2TOX_R_SQUARED 0.805, PBLUC_HILL_SLOPE 0.654, PBLUC_R_SQUARED 0.684, read-out: LUCIFERASE INFECTION ASSAY - IC50
  IC50: 0.043 µM
  IC90: 1.24 µM

## Cc1ccc(NC(=O)C(OC(=O)c2c(C)noc2C)c2ccccc2)cc1Cl (stereo not drawn)
[1]
  IC50: > 10 µM
  IC90: > 10 µM

## O=C(COc1ccccc1C(=O)Nc1ccccc1)NC(c1ccc(F)cc1)c1cccs1 (stereo not drawn)
FFLUC_HILL_SLOPE 12.2, FFLUC_R_SQUARED 0.17, PBLUC_HILL_SLOPE 2.56, PBLUC_R_SQUARED 0.393, read-out: LUCIFERASE INFECTION ASSAY - IC50
  IC50: 7.16 µM
  IC90: > 10 µM

## O=c1c(Cl)c(Cl)cnn1-c1cnc2ccccc2n1
FFLUC_HILL_SLOPE 1.37, FFLUC_R_SQUARED 0.431, HEPG2TOX_HILL_SLOPE 2.28, HEPG2TOX_R_SQUARED 0.959, PBLUC_HILL_SLOPE 0.482, PBLUC_R_SQUARED 0.686, read-out: LUCIFERASE INFECTION ASSAY - IC50
  IC50: 0.149 µM
  IC90: > 11.3 µM

## CC1CCc2[nH]c3ccc(C(=O)NCc4ccccc4CN(C)C)cc3c2C1 (stereo not drawn)
HEPG2TOX_HILL_SLOPE 12.7, HEPG2TOX_R_SQUARED 0.279, PBLUC_HILL_SLOPE 14.5, PBLUC_R_SQUARED 0.467, read-out: LUCIFERASE INFECTION ASSAY - IC50
  IC50: 9.09 µM
  IC90: > 10 µM

## CN(C)C(=O)CNC(=O)c1cc(-c2ccccc2)nc2c1cnn2Cc1ccccc1Cl
PBLUC_HILL_SLOPE 13.5, PBLUC_R_SQUARED 0.27, read-out: LUCIFERASE INFECTION ASSAY - IC50
  IC50: 8.61 µM
  IC90: > 10 µM

## CC(Nc1ccc(C(N)=O)cc1[N+](=O)[O-])C12CC3CC(CC(C3)C1)C2 (stereo not drawn)
[1]
  IC50: 5.52 µM
  IC90: > 10 µM

## Cc1ccc(N2C(=O)C=CC2=O)cc1Cl
FFLUC_HILL_SLOPE 79.3, FFLUC_R_SQUARED 0.497, PBLUC_HILL_SLOPE 1.92, PBLUC_R_SQUARED 0.35, read-out: LUCIFERASE INFECTION ASSAY - IC50
  IC50: 6.38 µM
  IC90: > 14.9 µM

## CCOc1ccc(S(=O)(=O)Nc2cccc(C(=O)N3CCN(c4ccccn4)CC3)c2)cc1
[1]
  IC50: > 10 µM
  IC90: > 10 µM

## O=C(Nc1ccc(Cl)cc1)Nc1nc(-c2cc(Cl)sc2Cl)cs1
FFLUC_HILL_SLOPE 2.44, FFLUC_R_SQUARED 0.604, PBLUC_HILL_SLOPE 2.52, PBLUC_R_SQUARED 0.549, read-out: LUCIFERASE INFECTION ASSAY - IC50
  IC50: 3.26 µM
  IC90: 7.79 µM

## CCCCNC(=O)c1c(NC(=O)c2cccc(F)c2)nc2ccc(C)cn12
[1]
  IC50: 1.29 µM
  IC90: 2.84 µM

## Nc1nc(-c2ccc(OCc3ccc(F)cc3)cc2)cs1
[1]
  IC50: > 8.66 µM
  IC90: > 8.66 µM

## CC(=O)c1c[nH]c(C(=O)Nc2nc(C)c(-c3ccccn3)s2)c1
[1]
  IC50: > 10 µM
  IC90: > 10 µM

## COc1ccc(Cc2nc(Oc3ccc(C(C)=O)cc3OC)c3c4c(sc3n2)CCC4)cc1OC
HEPG2TOX_HILL_SLOPE 23.6, HEPG2TOX_R_SQUARED 0.901, PBLUC_HILL_SLOPE 2.45, PBLUC_R_SQUARED 0.768, read-out: LUCIFERASE INFECTION ASSAY - IC50
  IC50: 4.61 µM
  IC90: > 10 µM

## Cc1onc(-c2c(F)cccc2Cl)c1C(=O)NC1CCSC1=O (stereo not drawn)
[1]
  IC50: > 9.3 µM
  IC90: > 9.3 µM

## Cc1cc(N2CCN(CCO)CC2)n2ncc(-c3ccc(F)cc3)c2n1
PBLUC_HILL_SLOPE 1.69, PBLUC_R_SQUARED 0.874, read-out: LUCIFERASE INFECTION ASSAY - IC50
  IC50: 2.17 µM
  IC90: 7.96 µM

## NNc1cc(C(F)(F)F)nc(C(F)(F)F)c1
PBLUC_HILL_SLOPE 17.4, PBLUC_R_SQUARED 0.11, read-out: LUCIFERASE INFECTION ASSAY - IC50
  IC50: 11.5 µM
  IC90: 13 µM

## COc1ccc(CC(N)c2csc(NC(=O)c3cccc(OC(F)(F)F)c3)n2)cc1 (stereo not drawn)
PBLUC_HILL_SLOPE 9.24, PBLUC_R_SQUARED 0.637, read-out: LUCIFERASE INFECTION ASSAY - IC50
  IC50: 5.89 µM
  IC90: 7.48 µM

## O=C(Nc1cc(Cl)cc(Cl)c1)c1cc(Cl)ccc1O
HEPG2TOX_HILL_SLOPE 1.87, HEPG2TOX_R_SQUARED 0.915, PBLUC_HILL_SLOPE 2.8, PBLUC_R_SQUARED 0.713, read-out: LUCIFERASE INFECTION ASSAY - IC50
  IC50: 0.502 µM
  IC90: 1.1 µM

## O=S(=O)(Nc1cc(-c2ccc(Cl)cc2)nn1-c1ccc(I)cc1)c1cccc(F)c1
HEPG2TOX_HILL_SLOPE 3.73, HEPG2TOX_R_SQUARED 0.889, PBLUC_HILL_SLOPE 8.27, PBLUC_R_SQUARED 0.455, read-out: LUCIFERASE INFECTION ASSAY - IC50
  IC50: 2.17 µM
  IC90: 2.83 µM

## CCCc1cc(NCc2ccccn2)n2ncc(-c3ccccc3)c2n1
PBLUC_HILL_SLOPE 2.13, PBLUC_R_SQUARED 0.117, read-out: LUCIFERASE INFECTION ASSAY - IC50
  IC50: 5.6 µM
  IC90: > 9.61 µM

## O=c1[nH]nc(SCc2ccc([N+](=O)[O-])cc2)n1CC1CCCO1 (stereo not drawn)
[1]
  IC50: > 10 µM
  IC90: > 10 µM

## Cc1ccc(-c2noc(-c3csc([C@@H]4C[C@H](O)[C@@H](CO)O4)n3)n2)cc1
PBLUC_HILL_SLOPE 1.21, PBLUC_R_SQUARED 0.165, read-out: LUCIFERASE INFECTION ASSAY - IC50
  IC50: 3.59 µM
  IC90: > 9.18 µM

## Cc1nn(C)c2nc(-c3ccco3)cc(C(=O)Nc3ccnn3Cc3ccc(Cl)cc3Cl)c12
FFLUC_HILL_SLOPE 11.1, FFLUC_R_SQUARED 0.205, read-out: LUCIFERASE INFECTION ASSAY - IC50
  IC50: > 10 µM
  IC90: > 10 µM

## Cc1ccc(NC(=O)c2cnn(-c3cccc(Cl)c3)c2C(C)C)nc1
PBLUC_HILL_SLOPE 12, PBLUC_R_SQUARED 0.586, read-out: LUCIFERASE INFECTION ASSAY - IC50
  IC50: 3.58 µM
  IC90: 4.3 µM

## O=C(NNC(=O)c1cccn1-c1ccc(F)cc1)Nc1ccc(Cl)c(Cl)c1
PBLUC_HILL_SLOPE 3.35, PBLUC_R_SQUARED 0.178, read-out: LUCIFERASE INFECTION ASSAY - IC50
  IC50: 3.96 µM
  IC90: 7.62 µM

## CCN(Cc1ccccc1)S(=O)(=O)c1ccc2c(c1)CCCN2C(C)=O
PBLUC_HILL_SLOPE 1.76, PBLUC_R_SQUARED 0.382, read-out: LUCIFERASE INFECTION ASSAY - IC50
  IC50: 8.69 µM
  IC90: > 10 µM

## CC(=O)Nc1cccc(-c2cc(NC=O)c3ncc(-c4ccc(C(C)=O)cc4)n3c2)c1
HEPG2TOX_HILL_SLOPE 0.38, HEPG2TOX_R_SQUARED 0.804, PBLUC_HILL_SLOPE 0.536, PBLUC_R_SQUARED 0.0495, read-out: LUCIFERASE INFECTION ASSAY - IC50
  IC50: > 8 µM
  IC90: > 8 µM

## O=C(Cn1cc(I)c(=O)c(I)c1)OCC(=O)N1CCCc2ccccc21
[1]
  IC50: > 10 µM
  IC90: > 10 µM

## Cn1ccc2cc(-c3cnc4cnc(-c5cccc(C(N)=O)c5)cn34)ccc21
HEPG2TOX_HILL_SLOPE 1.25, HEPG2TOX_R_SQUARED 0.898, PBLUC_HILL_SLOPE 0.953, PBLUC_R_SQUARED 0.66, read-out: LUCIFERASE INFECTION ASSAY - IC50
  IC50: 1.23 µM
  IC90: > 8.98 µM

## CCOc1cc2c(cc1NC(=O)CCCCCn1c(=S)[nH]c3ccccc3c1=O)OC(C)C2 (stereo not drawn)
[1]
  IC50: > 10 µM
  IC90: > 10 µM

## CCCCCc1nnc(NC(=O)c2nccnc2N)s1
HEPG2TOX_HILL_SLOPE 7.97, HEPG2TOX_R_SQUARED 0.296, PBLUC_HILL_SLOPE 11.4, PBLUC_R_SQUARED 0.31, read-out: LUCIFERASE INFECTION ASSAY - IC50
  IC50: 3.76 µM
  IC90: 4.56 µM

## Cc1cc(Br)ccc1NC(=O)CNC(=O)CCC(=O)N1CCC(c2ccccc2)=N1
[1]
  IC50: > 10 µM
  IC90: > 10 µM

## C/C(=N\NC(=S)NC(C)(C)C)c1cc(Cl)cc(Cl)c1O
FFLUC_HILL_SLOPE 16.6, FFLUC_R_SQUARED 0.277, read-out: LUCIFERASE INFECTION ASSAY - IC50
  IC50: > 9.87 µM
  IC90: > 9.87 µM

## Cc1cc(NC(=O)CCc2c(-c3ccc(F)cc3)[nH]c3ccc(F)cc23)no1
[1]
  IC50: > 10 µM
  IC90: > 10 µM

## N#CC(C(=O)COC(=O)COc1cc(Cl)c(Cl)cc1Cl)=C1Nc2ccccc2N1
[1]
  IC50: > 10 µM
  IC90: > 10 µM

## Cc1cccc2sc(NC(=O)c3cccc(S(=O)(=O)N4CCc5ccccc54)c3)nc12
[1]
  IC50: > 10 µM
  IC90: > 10 µM

## COc1cc(-c2cc(-c3ccc(F)cc3)cnc2N)ccc1O
PBLUC_HILL_SLOPE 9.98, PBLUC_R_SQUARED 0.631, read-out: LUCIFERASE INFECTION ASSAY - IC50
  IC50: 3.84 µM
  IC90: 4.78 µM

## Cc1c(C(=O)OCC(=O)/C=C2\N(C)c3ccccc3C2(C)C)sc2nc3n(c(=O)c12)CCC3
[1]
  IC50: > 10 µM
  IC90: > 10 µM

## COc1ccc(CN2C(=O)N(C)C3(CCN(Cc4ccc(N(C)c5ccccc5)cc4)CC3)C2=O)cc1
HEPG2TOX_HILL_SLOPE 3.68, HEPG2TOX_R_SQUARED 0.977, PBLUC_HILL_SLOPE 4.63, PBLUC_R_SQUARED 0.726, read-out: LUCIFERASE INFECTION ASSAY - IC50
  IC50: 2.36 µM
  IC90: 3.8 µM

## Cc1nn2c(nc(Sc3nnnn3C(C)C)c3ccccc32)c1Cl
PBLUC_HILL_SLOPE 6.07, PBLUC_R_SQUARED 0.112, read-out: LUCIFERASE INFECTION ASSAY - IC50
  IC50: 8.31 µM
  IC90: > 10 µM
